# Measurements from patent US20210230159A1, “4H-PYRIDO[1,2-A]PYRIMIDIN-4-ONE COMPOUNDS” (Prana Biotechnology Limited, priority 2014, published 2021).
# Assay: Hydrogen peroxide (H2O2) inhibition assay (fluorescence, DCF/horseradish peroxidase)
# Format: biochemical
# Conditions: for Cu % ASC (cf. CQ = 100%) / Zn % ASC (cf. CQ = 100%) / Fe-ASC % (cf. 0.4 uM Fe/Asc; cf. CQ, CQ = 100%): ascorbic acid as reducing substrate; for IC50: HCl salt tested where HCl salt MW is given; for Fe-DA % (cf. 0.4 uM Fe/DA; cf. CQ, CQ = 100%): dopamine as reducing substrate; for Fe-DA % (cf. 0.4 uM Fe/DA; cf. CQ, CQ = 100%) / Fe-ASC % (cf. 0.4 uM Fe/Asc; cf. CQ, CQ = 100%): test compound 0.4 μM, lower values = greater inhibition of H2O2
# Procedure: Assay 1. Hydrogen Peroxide Assay
# H2O2 is a strong oxidizer and a highly reactive oxygen species that is known to be toxic to surrounding proteins and organelles, inhibiting their function. […] […] H2O2 generated by the system is assessed by measuring the specific fluorescence profile at the excitation and emission wavelengths of 485 and 530 nm respectively, in the presence of test compound. Test compounds were dissolved in DMSO and tested at concentrations of 0.4 μM. Test compounds are ranked according to their capacity to inhibit H2O2 generated by the system where lower values reflect greater ability to inhibit H2O2 production.
Structure (SMILES),Cu % ASC (cf. CQ = 100%),IC50 [nM],Zn % ASC (cf. CQ = 100%),"Fe-DA % (cf. 0.4 uM Fe/DA; cf. CQ, CQ = 100%) [%]","Fe-ASC % (cf. 0.4 uM Fe/Asc; cf. CQ, CQ = 100%) [% ASC]"
O=C(NCC1CC1)c1cnc2c(O)cccn2c1=O [Compound 1428],Cu 212% ASC,430,Zn 74% ASC,75,–
O=C(NCc1ccc(Cl)cc1)c1cnc2c(O)cccn2c1=O [Compound 1429],Cu 54% ASC,390,Zn 57% ASC,148,–
O=C(NCc1ccc2c(c1)OCO2)c1cnc2c(O)cccn2c1=O [Compound 1432],–,410,–,66,65
CCNC(=O)c1cnc2c(O)cccn2c1=O [Compound 1433],–,390,–,73,152
O=c1cc(CNC2CCCC2)nc2c(O)cccn12 [Compound 1435],–,230,–,90,133
O=C(NC1CCCC1)c1cnc2c(O)cccn2c1=O [Compound 1436],–,210,–,101,190
CCCCCCNCc1cc(=O)n2cccc(O)c2n1 [Compound 1438],–,240,–,47,143
O=c1cc(CNCc2ccccc2)nc2c(O)cccn12 [Compound 1442],–,240,–,58,128
O=C(NCc1cccnc1)c1cnc2c(O)cccn2c1=O [Compound 1446],–,340,–,56,218
O=c1cc(CNc2cccnc2)nc2c(O)cccn12 [Compound 1448],–,460,–,66,137
O=C(NCc1ccc(Cl)cc1Cl)c1cnc2c(O)cccn2c1=O [Compound 1452],–,540,–,49,60
O=C(NCc1ccc(C(F)(F)F)cc1)c1cnc2c(O)cccn2c1=O [Compound 1453],–,340,–,59,79
O=C(NCc1ccc(F)c(F)c1)c1cnc2c(O)cccn2c1=O [Compound 1454],–,1000,–,46,65
O=c1cc(CNCc2ccc(C(F)(F)F)cc2)nc2c(O)cccn12 [Compound 1455],–,350,–,47,82
O=c1cc(CNC2CCCCC2)nc2c(O)cccn12 [Compound 1456],–,390,–,58,122
O=c1cc(CNCc2ccc(F)c(F)c2)nc2c(O)cccn12 [Compound 1459],–,330,–,48,110
"O=C(NC1CCCCC1)c1cnc2c(O)cccn2c1=O [Compound 1460, N-cyclohexyl-9-hydroxy-4-oxo-4H-pyrido[1,2-a]pyrimidine-3-carboxamide]",–,440,–,29,92
CCCCCCCNC(=O)C1=CNC2C(O)=CC=CN2C1=O (centres unmarked) [Compound 1462],–,460,–,54,72
COc1ccc(CNCc2cc(=O)n3cccc(O)c3n2)cc1OC [Compound 1463],–,590,–,73,158
Cc1ccc(O)c2nc(CNCc3ccc(F)cc3)cc(=O)n12 [Compound 1467],–,440,–,42,74
Cc1ccc(O)c2nc(CNC3CCCCC3)cc(=O)n12 [Compound 1468],–,210,–,39,169
Cc1ccc(O)c2nc(CNCc3ccc(Cl)cc3)cc(=O)n12 [Compound 1469],–,500,–,43,63

# Other lines, results leading:
Cu % ASC (cf. CQ = 100%),IC50 [nM],Zn % ASC (cf. CQ = 100%),"Fe-DA % (cf. 0.4 uM Fe/DA; cf. CQ, CQ = 100%) [%]","Fe-ASC % (cf. 0.4 uM Fe/Asc; cf. CQ, CQ = 100%) [% ASC]",Structure (SMILES)
–,470,–,71,71,O=C(NCc1ccc(F)cc1F)c1cnc2c(O)cccn2c1=O [Compound 1437]
–,> 10000,–,68,156,CCN(CC)Cc1cc(=O)n2cccc(O)c2n1 [Compound 1439]
–,690,–,48,66,CCCCCCNC(=O)c1cnc2c(O)cccn2c1=O [Compound 1440]
–,250,–,52,116,COc1ccc(CNCc2cc(=O)n3cccc(O)c3n2)cc1 [Compound 1443]
–,350,–,53,105,O=c1cc(CNc2ccc(F)cc2F)nc2c(O)cccn12 [Compound 1444]
–,< 100,–,45,176,CNC(=O)c1cnc2c(O)cccn2c1=O [Compound 1445]
–,240,–,52,112,O=C(NCc1ccccn1)c1cnc2c(O)cccn2c1=O [Compound 1447]
–,380,–,55,126,O=C(NCc1ccncc1)c1cnc2c(O)cccn2c1=O [Compound 1450]
–,580,–,67,136,O=c1cc(CNc2ccc(F)cc2)nc2c(O)cccn12 [Compound 1451]
–,580,–,43,137,O=c1cc(CNCC2CCCCC2)nc2c(O)cccn12 [Compound 1458]
–,490,–,57,59,O=C(NCC1CCCCC1)c1cnc2c(O)cccn2c1=O [Compound 1461]
–,470,–,47,135,O=c1cc(CNCc2ccc(OC(F)(F)F)cc2)nc2c(O)cccn12 [Compound 1464]
–,340,–,47,>234,Cc1ccc(O)c2nc(CN(C)C)cc(=O)n12 [Compound 1466]
–,350,–,38,>234,CCCNCc1cc(=O)n2c(C)ccc(O)c2n1 [Compound 1470]
–,300,–,62,125,Cc1ccc(O)c2nc(CN3CCCCC3)cc(=O)n12 [Compound 1471]
